Data published in PMC4864350, “Fluorogenic Substrates for In Situ Monitoring of Caspase-3 Activity in Live Cells” (PLoS ONE, 2016).
*: point of attachment. MethylRed = CN(C)c1ccc(/N=N/c2ccccc2C(=O)*)cc1; FAM = 5(6)-carboxyfluorescein; peptoid = not defined here; Ahx = NCCCCCC(=O)O

Tests used:
[1] = tested on: HEK293T cells; assay: Flow cytometry detection of caspase-3 activity in live cells; type: cell-based; conditions: 27 at 10 μM, 5 h
Experimental: Fig 4 Flow cytometry analysis of healthy and apoptotic HEK293T cells treated with substrate 27. The cells were incubated 5 h with fluorogenic substrate 27 (10 μM), detached, and analysed by flow cytometry (λEx/Em 488/530 nm, x-axis = fluorescence intensity). (A) Healthy, non-apoptotic cells. (B) Apoptotic cells (induced by 1 μM staurosporine). TEXT PRINTED IN THE PICTURE: (A) no label printed: FITC - 92.7%; FITC + 7.28% | (B) no label printed: FITC - 1.57%; FITC + 98.4% […]
Cell culture was performed in a Heracell 150 incubator (Heraeus) and in a Herasafe KS 18 class II negative-flow cabinet (Heraeus). HEK293T and MCF-7 cells (cultured in high glucose (4.5 mg/mL) DMEM supplemented with 4 mM glutamine, 100 units/mL penicillin, 10 mg/mL streptomycin and 25 mg/mL amphotericin B, and 10% FBS) were seeded onto a 48-well plate at a density of 10^4 cells per well. After 12 hours, the media was removed and substrates 1–14 added at 10 μM in fresh media. Selected wells were also treated with staurosporine (1 μM). After 5 hours, the cells were washed twice with PBS, detached with trypsin/EDTA, harvested with 2% FBS in PBS supplemented with Trypan Blue (0.04%) for analysis on a BD FACSAria® flow cytometer. Fluorescence was evaluated as mean fluorescence intensity (MFI) and estimated <100 u.a. for untreated control cells (consistent values independently of staurosporine addition). Apoptotic cells treated with substrate 1 were used as a positive control to obtain the maximum of fluorescence signal. 50,000 events per sample were plotted in two-dimensional dot plots based on forward and side scattering. The cellular size and complexity (SSC-H vs. FSC-H) were used to gate two populations (alive/apoptotic cells) (debri excluded). The data were analysed using the software Flowjo® 7.5.
Quantification of caspase-3 in apoptotic cells by flow cytometry
Localisation of apoptotic cells by flow cytometry. Flow cytometry analysis of morphology (SSC-A) and size (FSC-A) of HEK293T cells without (left image) and with (right image) treatment with 1 µM staurosporine for 4 h.
Calculation of active caspase-3 concentration inside cells
Substrate 27 was used to quantify caspase-3 per cell.1
1. Calculate FAM-Ahx-Leu-Pro-Asp released per cell:
Fluorescein-labelled microspheres (0.5% SC, ≈ 2 mmol/g),2 were used to generate the standard curve for fluorescence intensity versus amount of the fluorophore (nmol) by flow cytometry (see below).
Kossler, S.; Nofziger, C.; Jakab, M.; Dossena, S.; Paulmichl, M. Toxicology, 2012, 292, 123-135.
2 a) A. uncit-Broceta, E.M.V. Johansson, R.M. Yusop, R.M. Sanchez-Martin and M. Bradley, Nat.
Protocol, 2012, 7, 1207-1218. b) J.M. Cardenas-Maestre and R.M. Sanchez-Martin, Org. Biomol. Chem., […]
(§1) (1 picture or pasted object on this page, not shown here)
FAM standard curve to determine conversion factor (7x109 MFI/nmol) representing FI (Fluorescence Intensity) versus FAM quantity (nmol).
To determine the concentration of FAM-Ahx-Leu-Pro-Asp released per cell (nmol/cell) = [FI/cell – FI0/cell]/7x109 FI/nmol
Assuming 20 µm cell diameter and 2/3 of that for the nucleus, the cytoplasmic volume of HEK293T cell is 3 pl (VC).1,3
FAM-Ahx-Leu-Pro-Asp released per cell (M) = FAM-Ahx-Leu-Pro-Asp released per […]
2. Calculate the rate of product formation V0 with 5 h staurosporine treatment:
V0 = d[P]/dt = FAM-Ahx-Leu-Pro-Asp released per cell (mM)/18000 sec
3. Quantify the concentration of the enzyme per cell at high substrate concentrations (enzyme saturation) […]
kcat = 0.04 s-1 (sensor 27 DLPDK)
[E] = enzyme concentration per cell (nM)
[Caspase-3] = 15.65 ± 0.46 nM (1.3 ng active caspase 3 per 106 apoptotic staurosporine- […]
3 Y. Liu, X. Yan and T. Zhou, PLOS one, 2013, 8, 8.
4. Quantify the number of molecules per cell of caspase-3
NoE (number of enzyme molecules per cell) = [E]xVCxNA […]

[2] = tested on: HEK293T cells; assay: Live-cell confocal imaging of caspase-3 activation; type: cell-based; conditions: 27 at 10 μM
Experimental: Fig 5 Confocal microscopy images of HEK293T and MCF-7 cells treated with substrate 27. Confocal microscopy images (objective HCX PL APO ×63/1.40–0.6 Oil CS) of HEK273T cells with substrate 27 (10 μM) without staurosporine (STS) (A) and with staurosporine (1 μM) (B) induced apoptosis (green fluorescence is from fluorescein “turned on” by caspase-3 cleavage of the substrate, blue is DAPI nuclear stain). (C) Staurosporine treated MCF-7 cells with substrate 27.
Cell culture was performed in a Heracell 150 incubator (Heraeus) and in a Herasafe KS 18 class II negative-flow cabinet (Heraeus). […] Fluorescence was evaluated as mean fluorescence intensity (MFI) and estimated <100 u.a. for untreated control cells (consistent values independently of staurosporine addition). Apoptotic cells treated with substrate 1 were used as a positive control to obtain the maximum of fluorescence signal. […] The data were analysed using the software Flowjo® 7.5.
For confocal microscopy, the cells were fixed with 4% paraformaldehyde in PBS and the nuclei stained with Hoechst-33342 (1% w/v in PBS). Cellular fluorescence of cells was analysed using an Inverted Leica DM IRB with filter I3 (450–490 nm) and a Leica SP5 Confocal (FITC and DAPI channel).

[3] = biological target: T1, caspase-7 (Homo sapiens, UniProt P55210); assay: Caspase-7-mediated cleavage at high enzyme concentration analysed by MALDI-TOF MS; type: biochemical; conditions: 10–20 μM substrate, 0.4 μM enzyme, 2 h, 37 °C
T1 construct: purchased R&D systems, USA
T1 sequence (P55210 24-198 limits assumed): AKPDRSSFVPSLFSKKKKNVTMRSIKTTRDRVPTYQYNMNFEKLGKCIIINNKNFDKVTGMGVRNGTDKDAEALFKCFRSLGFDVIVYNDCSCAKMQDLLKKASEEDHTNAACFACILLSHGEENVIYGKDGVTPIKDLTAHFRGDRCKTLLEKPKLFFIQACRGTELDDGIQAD
T1 sequence (P55210 207-303 limits assumed): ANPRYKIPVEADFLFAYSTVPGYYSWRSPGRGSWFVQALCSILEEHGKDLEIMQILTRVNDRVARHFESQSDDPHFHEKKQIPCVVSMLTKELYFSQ
Experimental: To confirm how specific 11, 12 and 14 were for caspase-3, these substrates were incubated with high enzyme concentrations (10–20 μM substrate, 0.4 μM enzyme) and the caspase-mediated cleavage analysed by MALDI-TOF MS.
S2 Fig. (A) MALDI-TOF MS spectra of substrate 11 (sequence Asp-Ala-Pro-Asp). (B) After incubation (20 µM) with Caspase-3 for 2 h. (C) After incubation (20 µM) with Caspase-7 for 2 h (detected as the PBS adduct.)
Caspase-3 or caspase-7 (R&D systems, USA) was added to 100 µL of caspase assay buffer (final enzyme concentration 0.4 µM) with the substrates at 10–20 µM. The samples were incubated in Eppendorf Thermomixer® Comfort shaking at 1200 rpm for 2h at 37 °C. MALDI -TOF mass spectra were recorded as described in Table S1 .
as §1

[4] = apoptosis induced by 1 μM staurosporine (Fig 4B)

Substance: substrate 27: FAM-Ahx-Asp-Leu-Pro-Asp-Lys(MR)-Ahx, conjugated to the cell penetrating peptoid at the C-terminus ({FAM-Ahx}-DLPDK(MethylRed)-{Ahx-peptoid}; reading uncertain; also: printed as FAM-Ahx-Asp-Leu-Pro-Asp-Lys(MR)-Ahx)
- FITC + cells, apoptotic [1, 4]: 98.4%
- FITC - cells, apoptotic [1, 4]: 1.57%
- increase in fluorescence without staurosporine ([1]; no staurosporine, flow cytometry): no increase observed
- FITC + cells, healthy ([1]; non-apoptotic cells (Fig 4A)): 7.28%
- FITC - cells, healthy ([1]; non-apoptotic cells (Fig 4A)): 92.7%
- increase in the fluorescence intensity of the cells after apoptotic stimulation ([1]; staurosporine 1 μM, flow cytometry λEx/Em 488/530 nm): 2.5 fold
- fluorescence turn-on in apoptotic cells (confocal) ([2]; staurosporine 1 μM): only detected in the cytoplasm of apoptotic HEK293T cells
- fluorescence in non-apoptotic cells (confocal) ([2]; without staurosporine): no increase in fluorescence observed
- cleavage by caspase-7 (MALDI-TOF MS) [3]: did not show any cleavage
